# According to patent US20120189673A1, “POLYPEPTIDES AND USES THEREOF” (priority 2009, published 2012):
# Read-outs that look alike come from different tables or passages of the source.
# How the values were obtained:
# [1] = test system: intrinsic pathway of coagulation in normal human plasma; assay: Clotting assay: activated partial thromboplastin time (aPTT); assay type: biochemical
# Protocol: (§1) Clotting assays. All clotting times were measured using an Amelung coagulometer. Activated partial thromboplastin time (aPTT) was measured by incubating the peptides diluted in sterile water at the indicated concentrations, with 100 μL citrated human plasma for 1 minute followed by the addition of 100 μL aPTT reagent (aPTT Automate, Diagnostica Stago) for 60 seconds at 37° C. Clotting was initiated by the addition of 100 μL of a 25-mM CaCl2 solution. In the prothombrin time assay (PT), clotting was initiated by the addition of 100 μL Thrombomax with calcium (PT reagent; Sigma-Aldrich). For measuring the thrombin clotting time (TCT), clotting was initiated by the addition of 100 μL Accuclot thrombin time reagent (TCT reagent; Sigma-Aldrich).
# [2] = test system: extrinsic pathway of coagulation in normal human plasma; assay: Clotting assay: prothrombin time (PT); assay type: biochemical
# Protocol: as §1
# P. aeruginosa = assay: Viable count analysis, P. aeruginosa; assay type: cell-based, Pseudomonas aeruginosa; details: for killing in human plasma compared with physiological buffer: 20% human citrate plasma
# Protocol: Viable count analysis—E. coli strains were grown to mid-logarithmic phase in Todd-Hewitt (TH). P. aeruginosa strains were grown in TH overnight. Bacteria were washed and diluted in 10 mM Tris, pH 7.4 containing 5 mM glucose. 2×10^6 cfu/ml bacteria were incubated in 50 μl, at 37° C. for 2 h with the C-terminal TFPI-derived peptides GGL27, TKR22, or LIK17 at the indicated concentrations. Additional experiments were performed in 10 mM Tris, pH 7.4, containing 0.15 M NaCl, either alone or with 20% normal or heat inactivated citrate-plasma. Serial dilutions of the incubation mixture were plated on TH agar, followed by incubation at 37° C. overnight and cfu determination.
# E. coli = assay: Bacterial membrane permeabilization, impermeant probe FITC (fluorescence microscopy); assay type: cell-based, Escherichia coli; details: 30 μM peptide
# Protocol: Fluorescence microscopy. The impermeant probe FITC (Sigma-Aldrich, St. Louis, USA) was used for monitoring of bacterial membrane permeabilization. S. aureus ATCC 29213 bacteria were grown to mid-logarithmic phase in TSB medium. Bacteria were washed and resuspended in buffer (10 mM Tris, pH 7.4, 0.15M NaCl, 5 mM glucose) to yield a suspension of 1×10^7 CFU/ml. 100 μl of the bacterial suspension was incubated with 30 μM of the respective peptides at 30° C. for 30 min. Microorganisms were then immobilized on poly (L-lysine)-coated glass slides by incubation for 45 min at 30° C., followed by addition onto the slides of 200 μl of FITC (6 μg/ml) in buffer and a final incubation for 30 min at 30° C. […] Bacteria were visualized using a Nikon Eclipse TE300 (Nikon, Melville, USA) inverted fluorescence microscope equipped with a Hamamatsu C4742-95 cooled CCD camera (Hamamatsu, Bridgewater, USA) and a Plan Apochromat ×100 objective (Olympus, Orangeburg, USA). […]
# Fluorescence microscopy—Fluorescein isothiocyanate (FITC; Sigma-Aldrich, St. Louis, USA) was used for monitoring of bacterial membrane permeabilization. […] Bacteria were visualized using a Nikon Eclipse TE300 (Nikon, Melville, USA) inverted fluorescence microscope equipped with a Hamamatsu C4742-95 cooled CCD camera (Hamamatsu, Bridgewater, USA) and a Plan Apochromat ×100 objective (Olympus, Orangeburg, USA). […]
Sequence,activated partial thromboplastin time (aPTT) [1],activated partial thromboplastin time (aPTT) ([1]; listed as GGL-27),prothrombin time (PT) [2],prothrombin time (PT) ([2]; listed as GGL-27),potentiating effect of native plasma compared with heat-inactivated plasma (P. aeruginosa),killing in human plasma compared with physiological buffer (P. aeruginosa),permeabilization of bacterial membranes (E. coli)
"GGLIKTKRKRKKQRVKIAYEEIFVKNM [GGL27, C-terminal peptide of TFPI, plasmin-generated]",impair the intrinsic pathway of coagulation,impairs coagulation in a dose dependent manner,affected prothrombin time,impairs coagulation in a dose dependent manner,less significant,not enhanced,permeabilized bacterial membranes
LIKTKRKRKKQRVKIAY [LIK17],impair the intrinsic pathway of coagulation,,affected prothrombin time,,less significant,not enhanced,permeabilized bacterial membranes
